Reference: the supplement of paper PMC11061612

Columns and labels:
CS1 (Chondrosarcoma) = test: combination Emax (second highest fraction inhibited in the dose matrix, 72 h); higher = more inhibition; extreme values may be limits of the assay
Outline: (§1)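 After 24 hours at 37°C and 5% CO2 in 1536-well plates, cells in DMEM/F12 or RPMI plus 10% FBS received two-drug dose matrices for 72 hours. Viability came from CellTiter-Glo 2.0 luminescence and was scaled as inhibition, anchored at 0 by vehicle wells and at 1 by blank wells. Combination Emax is taken as the second-highest inhibition in the matrix, and Bliss excess as the observed combination effect less EA + EB − EA·EB, with EA and EB the single-agent effects.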

EW-22 (Ewing's Sarcoma) [1] = test: as above
Outline: as §1

[2] = test system: HOP-92 (Non-Small Cell Lung Carcinoma); test: as above
Outline: as §1

[3] = test system: 647-V (Bladder Carcinoma); test: as above
Outline: as §1

[4] = test system: SW48 (Colorectal Carcinoma); test: as above
Outline: as §1

Saos-2 (Osteosarcoma) [5] = test: as above
Outline: as §1

EW-22 (Ewing's Sarcoma) [6] = test: Bliss excess, mean over the matrix (fraction); higher = more synergy
Outline: as §1

[7] = test system: TYK-nu (Ovarian Carcinoma); test: as above
Outline: as §1

[8] = test system: SW948 (Colorectal Carcinoma); test: as above
Outline: as §1

[9] = test system: HCC-827 (Lung Adenocarcinoma); test: as above
Outline: as §1

[10] = test system: BICR78 (Oral Cavity Carcinoma); test: as above
Outline: as §1

Saos-2 (Osteosarcoma) [11] = test: as above
Outline: as §1

[12] = test system: PA-TU-8902 (Pancreatic Carcinoma); test: as above
Outline: as §1

[13] = test system: YT (Other Blood Carcinomas); test: as above
Outline: as §1

[14] = test system: SK-UT-1 (Other Solid Carcinomas); test: as above
Outline: as §1

[15] = test system: EFM-192A (Breast Carcinoma); test: as above
Outline: as §1

[16] = test system: RCC10RGB (Kidney Carcinoma); test: as above
Outline: as §1

D-392MG (Glioblastoma) = test: as above
Outline: as §1

[17] = test system: SK-LMS-1 (Other Solid Carcinomas); test: as above
Outline: as §1

[18] = test system: P31-FUJ (Acute Myeloid Leukemia); test: as above
Outline: as §1
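Throughout, for Bliss excess, mean over the matrix: after 72 h of two-drug dosing.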

Structure (SMILES)	combination Emax (CS1 (Chondrosarcoma))	combination Emax (EW-22 (Ewing's Sarcoma) [1])	combination Emax [2]	combination Emax [3]	combination Emax [4]	combination Emax (Saos-2 (Osteosarcoma) [5])	Bliss excess (EW-22 (Ewing's Sarcoma) [6])	Bliss excess [7]	Bliss excess [8]	Bliss excess [9]	Bliss excess [10]	Bliss excess (Saos-2 (Osteosarcoma) [11])	Bliss excess [12]	Bliss excess [13]	Bliss excess [14]	Bliss excess [15]	Bliss excess [16]	Bliss excess (D-392MG (Glioblastoma))	Bliss excess [17]	Bliss excess [18]
CC1(C)CCC(CN2CCN(c3ccc(C(=O)NS(=O)(=O)c4ccc(NCC5CCOCC5)c([N+](=O)[O-])c4)c(Oc4cnc5[nH]ccc5c4)c3)CC2)=C(c2ccc(Cl)cc2)C1 [Venetoclax] + C1CN(CCC1(C(=O)N[C@@H](CCO)C2=CC=C(C=C2)Cl)N)C3=NC=NC4=C3C=CN4 [Capivasertib] (first compound max 1 µM, 7x7, partner max 3 µM)	0.324	0.905	0.402	0.218	0.267	0.412	0.0137	-0.0343	-0.0718	-0.0278	-0.0342	-0.029	-0.0752	0.0073	0.0153	-0.046	-0.0402	-0.0437	-0.0485	0.0141
COc1nnc2ccc(N3CCC(c4ccc(OCCN5CCN(C)C(=O)[C@H]5C)cc4)CC3)nn12 [AZD5153] + C=CCn1c(=O)c2cnc(Nc3ccc(N4CCN(C)CC4)cc3)nc2n1-c1cccc(C(C)(C)O)n1 [AZD1775] (first compound max 1 µM, partner max 1 µM)	0.553	0.781	0.406	0.637	0.66	0.854	0.0427	-0.04	-0.11	0.0237	-0.0302	-0.0011	0.0421	-0.0842	-0.0323	-0.0138	0.0177	-0.0797	-0.0353	-0.0392
CC(=O)c1c(C)c2cnc(Nc3ccc(N4CCNCC4)cn3)nc2n(C2CCCC2)c1=O [Palbociclib] + Cn1cnc2c(F)c(Nc3ccc(Br)cc3Cl)c(C(=O)NOCCO)cc21 [Selumetinib] (first compound max 10 µM, 7x7, partner max 10 µM)	0.408	0.25	0.458	0.206	0.626	0.232	-0.0158	-0.065	-0.0078	-0.0172	0.0133	-0.0402	0.0639	-0.0471	-0.033	-0.0289	-0.0121	-0.0665	0.0539	0.0152
CC(=O)c1c(C)c2cnc(Nc3ccc(N4CCNCC4)cn3)nc2n(C2CCCC2)c1=O [Palbociclib] + CC1(C)CCC(CN2CCN(c3ccc(C(=O)NS(=O)(=O)c4ccc(NCC5CCOCC5)c([N+](=O)[O-])c4)c(Oc4cnc5[nH]ccc5c4)c3)CC2)=C(c2ccc(Cl)cc2)C1 [Venetoclax] (first compound max 10 µM, 7x7, partner max 1 µM)	0.354	0.347	0.145	0.098	0.313	0.197	0.0129	-0.0026	-0.089	-0.0379	-0.0611	-0.0417	-0.029	-0.13	-0.0343	-0.0115	-0.0012	-0.07	-0.0316	-0.073
Cc1c2c(nn1C)CSCc1cc(n(C)n1)CSc1cc(c3ccccc3c1)OCCCc1c(C(=O)O)n(C)c3c-2c(Cl)ccc13 [AZD5991] + C=CCn1c(=O)c2cnc(Nc3ccc(N4CCN(C)CC4)cc3)nc2n1-c1cccc(C(C)(C)O)n1 [AZD1775] (first compound max 1 µM, partner max 1 µM)	0.563	0.789	0.807	0.978	0.402	0.801	0.0756	0.0279	-0.13	-0.0243	-0.0034		-0.0326	-0.0725	-0.0534	-0.0297	-0.0182	0.116	-0.0388	-0.0127
CC1(C)CCC(CN2CCN(c3ccc(C(=O)NS(=O)(=O)c4ccc(NCC5CCOCC5)c([N+](=O)[O-])c4)c(Oc4cnc5[nH]ccc5c4)c3)CC2)=C(c2ccc(Cl)cc2)C1 [Venetoclax] + Cc1cc2ncnn2cc1Nc1ncc2c(n1)n(C1CCOCC1)c(=O)n2C [AZD7648] (first compound max 1 µM, 7x7, partner max 10 µM)	0.297	0.842	0.263	0.209	0.369	0.325	-0.0094	-0.0074	-0.0448	0.0085	-0.0493	-0.0075	-0.0715	-0.0667	-0.0119	-0.0046	-0.0536	-0.0374	-0.0292	-0.015
COc1cccc(OCCCN)c1-c1cc(Nc2cnc(C#N)cn2)n[nH]1 [Prexasertib] + C=CCn1c(=O)c2cnc(Nc3ccc(N4CCN(C)CC4)cc3)nc2n1-c1cccc(C(C)(C)O)n1 [AZD1775] (first compound max 1 µM, partner max 1 µM)	0.735	0.866	0.7	0.925	0.834	0.935	0.223	0.0459	0.0608	-0.029	0.0619	0.105	0.0716	-0.0086	0.071	0.0662	-0.0202	0.109	0.0434	0.0104
COc1cccc(OCCCN)c1-c1cc(Nc2cnc(C#N)cn2)n[nH]1 [Prexasertib] + Cc1cc2ncnn2cc1Nc1ncc2c(n1)n(C1CCOCC1)c(=O)n2C [AZD7648] (first compound max 1 µM, 7x7, partner max 10 µM)	0.727	0.89	0.663	0.757	0.728	0.662	-0.0519	-0.072	-0.0155	0.0186	-0.0379	-0.0591	-0.0059	-0.0508	-0.0227	-0.0199	-0.075	-0.0254	0.0078	-0.0255
Cc1c2c(nn1C)CSCc1cc(n(C)n1)CSc1cc(c3ccccc3c1)OCCCc1c(C(=O)O)n(C)c3c-2c(Cl)ccc13 [AZD5991] + CC1(C)CCC(CN2CCN(c3ccc(C(=O)NS(=O)(=O)c4ccc(NCC5CCOCC5)c([N+](=O)[O-])c4)c(Oc4cnc5[nH]ccc5c4)c3)CC2)=C(c2ccc(Cl)cc2)C1 [Venetoclax] (first compound max 1 µM, 7x7, partner max 1 µM)	0.16	0.839	0.44	0.618	0.339	0.534	0.128	-0.0144	-0.003	-0.0269	-0.0106	0.0174	-0.0595	-0.0017	-0.0095	0.0257	-0.0086	0.0314	-0.0422	0.137
C=CCn1c(=O)c2cnc(Nc3ccc(N4CCN(C)CC4)cc3)nc2n1-c1cccc(C(C)(C)O)n1 [AZD1775] + C1CN(CCC1(C(=O)N[C@@H](CCO)C2=CC=C(C=C2)Cl)N)C3=NC=NC4=C3C=CN4 [Capivasertib] (first compound max 3 µM, partner max 3 µM)	0.63	0.786	0.551	0.948		0.757	0.0403	-0.0475	-0.003	0.0073	-0.0822	-0.0459	-0.0609	-0.0938	-0.0037	-0.0004	-0.0144	0.0315	-0.087	-0.0276
CN(C)CCCOc1ccc(-c2ccc3ncc4c(c3c2)n(C2CCOCC2)c(=O)n4C)cn1 [AZD0156] + O=C(c1cc(Cc2n[nH]c(=O)c3ccccc23)ccc1F)N1CCN(C(=O)C2CC2)CC1 [Olaparib] (first compound max 3 µM, partner max 3 µM)	0.296	0.872	0.256	0.257		0.218	0.217	0.0468	-0.0231	-0.0328	-0.0507	0.0334	-0.0456	0.0265	0.0429	-0.0026	-0.0356	-0.0585	0.0373	0.0759
CCN(CCO)CCCOc1ccc2c(Nc3cc(CC(=O)Nc4cccc(F)c4)[nH]n3)ncnc2c1 [AZD2811] + O=C(c1cc(Cc2n[nH]c(=O)c3ccccc23)ccc1F)N1CCN(C(=O)C2CC2)CC1 [Olaparib] (first compound max 1 µM, 7x7, partner max 10 µM)	0.386	0.949	0.363	0.275	0.961	0.456	-0.0612	-0.0152		-0.0162	-0.0114	0.0395	0.0081	0.0623	0.0453	0.0138	-0.0004	-0.0695	0.0076	-0.0895
CN(C)CCCOc1ccc(-c2ccc3ncc4c(c3c2)n(C2CCOCC2)c(=O)n4C)cn1 [AZD0156] + CCN(CCO)CCCOc1ccc2c(Nc3cc(CC(=O)Nc4cccc(F)c4)[nH]n3)ncnc2c1 [AZD2811] (first compound max 1 µM, 7x7, partner max 1 µM)	0.301	0.694	0.383	0.167	0.957	0.369	0.005	-0.0179		-0.0088	-0.047	0.0088	-0.0223	0.0041	0.0253	-0.0243	-0.039	-0.0556	0.0032	-0.0314
C=CCn1c(=O)c2cnc(Nc3ccc(N4CCN(C)CC4)cc3)nc2n1-c1cccc(C(C)(C)O)n1 [AZD1775] + O=C(c1cc(Cc2n[nH]c(=O)c3ccccc23)ccc1F)N1CCN(C(=O)C2CC2)CC1 [Olaparib] (first compound max 1 µM, partner max 10 µM)	0.564	0.894	0.596	0.654	0.409	0.613	0.0148	-0.108		-0.042	0.0107	-0.0422	-0.0327	-0.008	-0.0148	-0.0307	-0.0166	-0.0369	0.0065	-0.0809
